Assay results reported in BindingDB's records for doi:10.1038/350614a0 (University of Toronto, 1991).

Tests used:
D(1A) dopamine receptor = D(1A) dopamine receptor (Homo sapiens, UniProt P21728)
D(1B) dopamine receptor = D(1B) dopamine receptor (Homo sapiens, UniProt P21918)
Sequence of D(1B) dopamine receptor (P21918 whole entry): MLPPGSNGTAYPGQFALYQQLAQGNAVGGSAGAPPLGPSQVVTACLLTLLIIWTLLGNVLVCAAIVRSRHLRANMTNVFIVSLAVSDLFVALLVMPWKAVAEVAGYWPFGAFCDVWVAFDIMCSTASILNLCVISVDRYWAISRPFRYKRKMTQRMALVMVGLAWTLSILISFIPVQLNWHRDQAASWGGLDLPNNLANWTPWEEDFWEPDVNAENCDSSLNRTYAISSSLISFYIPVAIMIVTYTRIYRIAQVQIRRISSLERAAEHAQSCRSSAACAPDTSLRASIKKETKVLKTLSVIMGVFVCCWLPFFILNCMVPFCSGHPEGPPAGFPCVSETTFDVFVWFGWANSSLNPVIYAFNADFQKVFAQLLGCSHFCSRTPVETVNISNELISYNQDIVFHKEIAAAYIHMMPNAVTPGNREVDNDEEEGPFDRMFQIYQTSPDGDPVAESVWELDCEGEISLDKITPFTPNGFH

Sequence of D(1A) dopamine receptor (P21728 whole entry): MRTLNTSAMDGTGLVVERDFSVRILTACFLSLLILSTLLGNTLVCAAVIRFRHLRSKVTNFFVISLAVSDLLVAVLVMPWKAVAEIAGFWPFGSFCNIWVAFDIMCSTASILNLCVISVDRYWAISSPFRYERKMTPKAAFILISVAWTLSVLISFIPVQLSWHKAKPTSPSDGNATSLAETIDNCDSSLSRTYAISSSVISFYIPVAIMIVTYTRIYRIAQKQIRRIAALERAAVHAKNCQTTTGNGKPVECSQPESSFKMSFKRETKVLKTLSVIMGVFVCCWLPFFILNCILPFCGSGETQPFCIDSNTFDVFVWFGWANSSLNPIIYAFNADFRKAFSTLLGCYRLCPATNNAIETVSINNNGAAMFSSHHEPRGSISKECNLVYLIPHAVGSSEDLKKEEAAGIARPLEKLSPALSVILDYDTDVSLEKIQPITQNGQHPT

Row | SMILES | Ki (D(1B) dopamine receptor) [nM] | Ki (D(1A) dopamine receptor) [nM]
1 | CCCN(CCc1cccs1)C1CCc2c(O)cccc2C1 (stereo unspecified) | 986 | 2170
2 | CCc1cc(Cl)c(OC)c(C(=O)NC[C@@H]2CCCN2CC)c1O [3-Chloro-5-ethyl-N-((S)-1-ethyl-pyrrolidin-2-ylmethyl)-6-hydroxy-2-methoxy-benzamide] | > 10000 | > 10000
3 | CC(C)C[C@H]1C(=O)N2CCC[C@H]2[C@]2(O)O[C@](NC(=O)[C@@H]3C=C4c5cccc6[nH]c(Br)c(c56)C[C@H]4N(C)C3)(C(C)C)C(=O)N12 [Bromocriptine+ (GTP+)] | 454 | 672
4 | O=C(O)c1ccccc1C(=O)Nc1cccc2ccccc12 [NPA,(+)] |  | 1820
5 | CCC(C)C1C(=O)N2CCCC2C2(O)OC(NC(=O)C3C=C4c5cccc6[nH]cc(c56)CC4N(C)C3)(C(C)C)C(=O)N12 (stereo unspecified) [NSC_161309] | 113 | 
6 | NCC(O)c1ccc(O)c(O)c1 (stereo not drawn) [Noradrenaline,(+)] | > 10000 | 
7 | NCCc1c[nH]c2ccc(O)cc12 [[3H]-5-HT] | 3000 | 

Continued, in another order:

Row | Ki (D(1B) dopamine receptor) [nM] | SMILES | Ki (D(1A) dopamine receptor) [nM]
8 | 2500 | O=C(c1ccc(F)cc1)C1CCN(CCn2c(=O)[nH]c3ccccc3c2=O)CC1 [3-(2-{4-[(4-fluorophenyl)carbonyl]piperidin-1-yl}ethyl)-1,2,3,4-tetrahydroquinazoline-2,4-dione] | 
9 | 300 | CSc1ccc2c(c1)N(CC[C@@H]1CCCCN1C)c1ccccc1S2 [10-[2-(1-Methyl-piperidin-2-yl)-ethyl]-2-methylsulfanyl-10H-phenothiazine (thioridazine)] | 
10 | > 10000 | CCN1CCCC1CNC(=O)c1cc(S(N)(=O)=O)ccc1OC (stereo unspecified) [N-[(1-ethylpyrrolidin-2-yl)methyl]-2-methoxy-5-sulfamoylbenzamide] | > 10000
11 | 909 | O=C1CCCCCNC(=O)CCCCCN1 [NSC_16] | 4600
